Our source for the GI50 and TGI values is PubChem BioAssay (NCI).

Test systems include A549 NSCLC; COLO 205 colon; NCI-H226 lung; NCI-H460 lung; OVCAR-4 ovarian; RPMI-8226 leukemia; SK-MEL-28 melanoma; SW-620 colon; T-47D breast; TK-10 renal.
Assay in all cases: NCI tumour cell line growth inhibition, 48 h

Where “and” joins values, the source holds several entries; their conditions need not be identical. Identical values can stand only once.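 Protocol summary: plate cells (96-well), add compound at 5 concentrations, incubate 48 h, interpolate endpoints linearly. GI50 marks 50% less growth. The concentration for full growth arrest is given as TGI.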 Some results are limits rather than exact numbers.

As to `OCc1ccc(-c2nn(Cc3ccccc3)c3ccccc23)o1`, the GI50 is 15.6 µM and 18.5 µM with A549 NSCLC; 8.05 µM and 5.73 µM in the experiment with COLO 205 colon; 0.156 µM and 0.114 µM in the experiment on NCI-H226 lung; 12.8 µM and 12.2 µM with NCI-H460 lung; 10.2 µM and 28.1 µM in the experiment with OVCAR-4 ovarian; 14.3 µM and 3.15 µM in the experiment on RPMI-8226 leukemia. For the same molecule, the GI50 was 16.9 µM and 15.7 µM in the experiment with SK-MEL-28 melanoma; 13.3 µM and 12.3 µM in the experiment with SW-620 colon; 11.1 µM and 12.4 µM in the experiment on T-47D breast; 0.253 µM and 0.489 µM in the experiment on TK-10 renal. Besides, the TGI in the experiment on A549 NSCLC is 47.7 µM and > 56.9 µM; with COLO 205 colon, 26.2 µM and 21.7 µM; in the experiment on NCI-H226 lung, 0.346 µM and 0.371 µM; in the experiment with NCI-H460 lung, 29.4 µM and 28.5 µM; with OVCAR-4 ovarian, above 100 µM; in the experiment on RPMI-8226 leukemia, 43.8 µM and 15.3 µM. The TGI is 36.5 µM and 47.5 µM in the experiment with SK-MEL-28 melanoma; 51.9 µM and 32.8 µM in the experiment with SW-620 colon; 43.4 µM and 26.2 µM in the experiment on T-47D breast; 1.02 µM and 3.61 µM in the experiment on TK-10 renal.

With `CC(=O)O[C@@H]1CC2C(C)(C)CCCC2(C)C2=C1C(=O)C(C(C)C)=CC2=O` (stereo not given in full), the GI50 with A549 NSCLC was 1.43 µM; in the experiment with COLO 205 colon it was 1.88 µM; with NCI-H226 lung, 0.518 µM; in the experiment on NCI-H460 lung, 0.423 µM; in the experiment on OVCAR-4 ovarian, 0.838 µM; in the experiment with RPMI-8226 leukemia, 0.948 µM. In addition, the GI50 is 0.691 µM with SK-MEL-28 melanoma, 1.19 µM with SW-620 colon, 1.49 µM in the experiment on T-47D breast and 2.51 µM with TK-10 renal. For the same molecule, the TGI in the experiment with A549 NSCLC was 5.83 µM; in the experiment with COLO 205 colon, 4.11 µM; with NCI-H226 lung, 2.09 µM; in the experiment with NCI-H460 lung, 1.9 µM; with OVCAR-4 ovarian, 6.58 µM; with RPMI-8226 leukemia it was 93.4 µM. Further, the TGI with SK-MEL-28 melanoma is 3.43 µM; in the experiment with SW-620 colon, 3.28 µM; with T-47D breast it was 7.31 µM; with TK-10 renal, above 100 µM.

Take `C[C@@H]1COCCN1c1cc(C2(S(C)(=N)=O)CC2)nc(-c2ccnc3[nH]ccc23)n1` (stereo not given in full): the GI50 with A549 NSCLC was 3.35 µM; in the experiment with COLO 205 colon, 11.7 µM; with NCI-H226 lung, 3.94 µM; with NCI-H460 lung, 1.07 µM; in the experiment with OVCAR-4 ovarian, 1.86 µM; in the experiment on RPMI-8226 leukemia, 5.73 µM. In addition, the GI50 in the experiment on SK-MEL-28 melanoma was 5.59 µM; with SW-620 colon, 8.36 µM; with T-47D breast, 3.15 µM; in the experiment on TK-10 renal, 8.51 µM. Besides, the TGI stood at 35.2 µM in the experiment with A549 NSCLC; 29 µM with COLO 205 colon; 76.8 µM with NCI-H226 lung; 20.6 µM in the experiment on NCI-H460 lung; 23.7 µM in the experiment with OVCAR-4 ovarian; 36.1 µM in the experiment on RPMI-8226 leukemia. Further, the TGI in the experiment on SK-MEL-28 melanoma is 25.8 µM; in the experiment on SW-620 colon it was 95.1 µM; with T-47D breast it was 19.5 µM; in the experiment on TK-10 renal, 51 µM.

Turning to `CN(C)CCOc1ccc2c(c1)C/C(=C/c1ncc([N+](=O)[O-])n1C)C2=O`, the TGI in the experiment with A549 NSCLC stood at 7.74 µM; with COLO 205 colon it was 3.33 µM; with NCI-H226 lung it was 4.52 µM; in the experiment with NCI-H460 lung it was 4.05 µM; in the experiment with OVCAR-4 ovarian, 5.84 µM; with RPMI-8226 leukemia, 4.46 µM. Besides, the TGI in the experiment with SK-MEL-28 melanoma was 33.4 µM; in the experiment with SW-620 colon, 18.2 µM; with T-47D breast, 32.8 µM; in the experiment with TK-10 renal, 10.9 µM.

Take `O=C1/C(=C/c2ccc(O)cc2)COc2ccc(-c3ccccc3)cc21`: the GI50 with A549 NSCLC was 13.2 µM; in the experiment on COLO 205 colon, 10.6 µM; with NCI-H226 lung, 16.1 µM; in the experiment on NCI-H460 lung, 3.73 µM; in the experiment on OVCAR-4 ovarian it was 14.1 µM; in the experiment with RPMI-8226 leukemia, 1.4 µM. Besides, the GI50 was 10.1 µM in the experiment with SK-MEL-28 melanoma, 2.8 µM in the experiment on SW-620 colon, 3.76 µM in the experiment on T-47D breast and 2.98 µM with TK-10 renal. Moreover, the TGI with A549 NSCLC amounted to 49.6 µM; in the experiment with COLO 205 colon it was 33.9 µM; in the experiment with NCI-H226 lung, 39.2 µM; with NCI-H460 lung, 15.8 µM; in the experiment with OVCAR-4 ovarian, 31 µM; in the experiment with RPMI-8226 leukemia, 7.68 µM. In addition, the TGI in the experiment with SK-MEL-28 melanoma is 24.5 µM; in the experiment with SW-620 colon, 8.06 µM; in the experiment on T-47D breast it was 25.6 µM; in the experiment with TK-10 renal, 11.9 µM.

With `O=C(CCl)N1c2ccccc2Sc2c1ccc1ccccc21`, the GI50 in the experiment with A549 NSCLC is 9.52 µM; in the experiment with COLO 205 colon, 1.87 µM; in the experiment with NCI-H226 lung, 2.21 µM; in the experiment with NCI-H460 lung, 2.11 µM; in the experiment with OVCAR-4 ovarian it was 2.56 µM; with RPMI-8226 leukemia, 3.08 µM. In addition, the GI50 with SK-MEL-28 melanoma was 2.98 µM; in the experiment with SW-620 colon it was 1.66 µM; in the experiment with T-47D breast, 2.19 µM; with TK-10 renal it was 3.86 µM. Also, the TGI in the experiment on A549 NSCLC came out at 30.3 µM; in the experiment on COLO 205 colon it was 4.06 µM; in the experiment on NCI-H226 lung it was 5.26 µM; in the experiment with NCI-H460 lung it was 4.34 µM; in the experiment with OVCAR-4 ovarian, 6.18 µM; in the experiment on RPMI-8226 leukemia, 13.1 µM. Also, the TGI in the experiment with SK-MEL-28 melanoma stood at 7.56 µM; in the experiment on SW-620 colon, 3.68 µM; in the experiment on T-47D breast, 6.07 µM; with TK-10 renal, 11.5 µM.

For the molecule `Clc1nc(Cl)c2c(ncn2C/C=C\Cn2cnc3c(Cl)nc(Cl)nc32)n1`, the GI50 in the experiment on A549 NSCLC is 2.38 µM; with COLO 205 colon, 1.46 µM; in the experiment with NCI-H226 lung, 1.76 µM; with NCI-H460 lung it was 2.34 µM; with OVCAR-4 ovarian, 1.73 µM; with RPMI-8226 leukemia, 1.58 µM. Moreover, the GI50 with SK-MEL-28 melanoma was 1.66 µM; with SW-620 colon it was 0.776 µM; in the experiment with T-47D breast, 1.32 µM; in the experiment with TK-10 renal, 1.85 µM. Further, the TGI in the experiment with A549 NSCLC was 5.99 µM; in the experiment with COLO 205 colon, 3.01 µM; with NCI-H226 lung, 3.84 µM; with NCI-H460 lung it was 5.65 µM; in the experiment with OVCAR-4 ovarian, 3.28 µM; in the experiment with RPMI-8226 leukemia it was 3.8 µM. In addition, the TGI in the experiment on SK-MEL-28 melanoma turned out to be 3.02 µM; in the experiment with SW-620 colon, 2.12 µM; with T-47D breast, 3.06 µM; in the experiment on TK-10 renal it was 3.45 µM.

Regarding `COc1ccc2c(c1)OC(N(C(C)=O)C(C)=O)=C(C#N)C2c1ccc(F)cc1` (stereo not given), the GI50 in the experiment on A549 NSCLC is 4.45 µM; with COLO 205 colon, 2.2 µM; in the experiment on NCI-H226 lung it was 25.5 µM; in the experiment with NCI-H460 lung, 1.88 µM; in the experiment with OVCAR-4 ovarian, 7.93 µM; with RPMI-8226 leukemia, 3.18 µM. Besides, the GI50 with SK-MEL-28 melanoma was 9.97 µM; in the experiment on SW-620 colon, 0.553 µM; in the experiment with T-47D breast, 4.98 µM; in the experiment with TK-10 renal, 17.5 µM. The TGI is above 100 µM in the experiment on A549 NSCLC; 7.26 µM with COLO 205 colon; above 100 µM in the experiment on NCI-H226 lung; 45.5 µM in the experiment on NCI-H460 lung; above 100 µM in the experiment with OVCAR-4 ovarian; 27.1 µM in the experiment on RPMI-8226 leukemia. The TGI in the experiment on SK-MEL-28 melanoma, in the experiment on SW-620 colon, in the experiment with T-47D breast and in the experiment with TK-10 renal was above 100 µM in each case.

Take `CN(C)C(=S)N=Nc1c(O)[nH]c2ccccc12`: the GI50 with A549 NSCLC was 0.465 µM; in the experiment with COLO 205 colon it was 0.356 µM; in the experiment with NCI-H226 lung, 0.642 µM; with NCI-H460 lung it was 0.374 µM; with OVCAR-4 ovarian, 0.394 µM; in the experiment with RPMI-8226 leukemia it was 0.418 µM. The GI50 in the experiment on SK-MEL-28 melanoma is 2.57 µM; with SW-620 colon, 0.576 µM; with T-47D breast, 0.404 µM; with TK-10 renal, 0.721 µM. Further, the TGI with A549 NSCLC amounted to 18.8 µM; with COLO 205 colon, 3.56 µM; in the experiment on NCI-H226 lung, 6.43 µM; with NCI-H460 lung, 2.49 µM; in the experiment on OVCAR-4 ovarian, 5.59 µM; with RPMI-8226 leukemia, 33.5 µM. For the same molecule, the TGI in the experiment with SK-MEL-28 melanoma was 22.7 µM; in the experiment with SW-620 colon it was 21.6 µM; in the experiment with T-47D breast it was 10.2 µM; in the experiment with TK-10 renal, 14.7 µM.

Regarding `Nc1cc(N)c(N)cc1N`, the GI50 in the experiment with A549 NSCLC was 2.06 µM; in the experiment on COLO 205 colon, 1.81 µM; with NCI-H226 lung, 1.93 µM; in the experiment on NCI-H460 lung, 10.8 µM; with OVCAR-4 ovarian it was 1.79 µM; with RPMI-8226 leukemia it was 3.48 µM. Further, the GI50 in the experiment with SK-MEL-28 melanoma was 2.03 µM; with SW-620 colon, 3.09 µM; with T-47D breast it was 4.57 µM; in the experiment on TK-10 renal, 3.68 µM. Besides, the TGI is 4.51 µM with A549 NSCLC; 3.43 µM in the experiment with COLO 205 colon; 3.96 µM with NCI-H226 lung; 26.2 µM in the experiment on NCI-H460 lung; 3.35 µM with OVCAR-4 ovarian; 17.5 µM in the experiment on RPMI-8226 leukemia. Further, the TGI stood at 3.88 µM in the experiment with SK-MEL-28 melanoma, 12.1 µM with SW-620 colon, 24.5 µM in the experiment with T-47D breast and 14.5 µM with TK-10 renal.

Turning to `Oc1ccc(CCCCCCc2ccc(O)cc2)cc1`, the GI50 was 6.62 µM in the experiment with A549 NSCLC; 15.2 µM in the experiment with COLO 205 colon; 15.7 µM in the experiment with NCI-H226 lung; 5.88 µM in the experiment on NCI-H460 lung; 14.4 µM in the experiment with OVCAR-4 ovarian; 12.1 µM with RPMI-8226 leukemia. The GI50 was 17 µM in the experiment on SK-MEL-28 melanoma, 7.29 µM in the experiment on SW-620 colon, 8.03 µM in the experiment on T-47D breast and 19.7 µM in the experiment with TK-10 renal. For the same molecule, the TGI in the experiment with A549 NSCLC was 23 µM; in the experiment with COLO 205 colon, 29.4 µM; with NCI-H226 lung, 32.9 µM; in the experiment on NCI-H460 lung it was 18.9 µM; with OVCAR-4 ovarian, above 46.9 µM; in the experiment on RPMI-8226 leukemia, above 69 µM. The TGI with SK-MEL-28 melanoma is 31.5 µM; in the experiment with SW-620 colon it was 20.5 µM; in the experiment with T-47D breast, 27.2 µM; with TK-10 renal it was above 57.3 µM.
